Experiment [1] has as its system TGF-β1 activation. The experiment can be described thus: Macrophage activation assay (LPS-treated IC-21 macrophages plus fetal fibroblast conditioned media, TGF-β1 ELISA). It is filed as cell-based, Mouse. The settings on record: for inhibition at 100 µM / inhibition at 50 µM: read-out: Inhibition of TGF-β1 Activation, % control (STD). The protocol: Cultured macrophages were lifted from the dish with 3 ml of PBS. The PBS was balanced with 15 ml of RPMI-1640 containing 10% FBS. The cells were counted and then seeded in 100 mm plates at 1x10^6 cells/dish. When the cultured macrophages reached approximately 70% confluency (2-3 days) they were washed with PBS and RPMI-1640 medium containing 5% FBS and 10 ng/ml LPS was applied (Figure 1). After 24 h of activation with LPS the cells were washed gently with PBS. At this point conditioned medium from confluent fetal dermal fibroblasts was collected and 5 ml was distributed into each dish containing macrophages. The cells were incubated for an additional 24 h, the media were collected, spun down at 600 x g for 10 min and stored at 4° C before TGF-β1 evaluation by ELISA. Each condition was done in duplicate. The cells, washed with PBS, were harvested for total RNA extraction.
Fetal dermal fibroblasts were seeded in 100 mm dishes at 1x10^6 cell/dish. The cells were grown to confluency (2-3 days). The cultures were washed with PBS and fresh medium, either DMEM supplemented with 10% FBS or AIM-V medium (a serum free medium) for serum-free conditions, was applied for 24 h (Figure 1). The medium was collected and combined in order to obtain a homogenous pool of latent TGF-β1. The collection of the medium was done just prior to application in the macrophage assay.
Each measurement was performed in duplicates.

For experiment [2], the system named is TGF-β1. The experiment can be described thus: mRNA for TGF-β1 in macrophages, Northern blot. Format: cell-based, Mouse. The settings on record: combined treatment of LPS with M6P or DCA. The protocol:
(§1) The cells were washed with PBS, followed by addition of the extraction buffer provided with the kit (RNeasy RNA extraction kit). The lysed cells were scraped from the dish and collected in microtubes. Samples were either frozen at -70 °C before analysis or directly assessed following manufacturer protocol. Absorbance at 260 nm and 280 nm was measured and the integrity of RNA was evaluated by denaturing formaldehyde agarose gels stained with ethidium bromide.
Northern blot analysis was carried out as described previously (27). Briefly, total RNA samples (5 µg) were diluted in formaldehyde-MOPS buffer and subjected to electrophoresis in a denaturing 1.2 % Sea Kem GTG agarose gel along with the RNA size markers. RNA was transferred to a nitrocellulose membrane by capillary transfer. The blots were prehybridized for 3 h at 42° C in a solution containing 10% dextran sulfate, 2 x Denhardt's solution, 50% formamide, 5 x SSPE (0.75 M Sodium chloride, 0.05 M sodium phosphate, 0.005 M ethylenediaminetetraacetic acid)/ 0.1% SDS, and 250 µg/ml of sheared salmon testis DNA. Hybridization solution was essentially the same except that ^32P dCTP-labeled DNA probe and 150 µg/ml of salmon testis DNA were included. The hybridization was carried out for 16 h at 42° C. […]

The test system of experiment [3] is TGase II. The experiment can be described thus: mRNA for TGase II in macrophages, RT-PCR with densitometry. It is filed as cell-based. The settings on record: Mus musculus, Macrophage; macrophages treated with 1 µM hydrocortisone; densitometric analysis of RT-PCR products. The protocol: as §1
(§2) The procedure used to transcribe the total RNA was described in detail previously (28). […]
(§3) A portion of the first strand cDNA reaction was used in PCR, which was carried out in 25 µl containing 16 mM Tris-HCl, pH 8.3, 50 mM KCl, 1.5 mM MgCl2, 0.01 % gelatin, 200 µM of each dNTPs, 1 µM each sense and antisense oligonucleotides and 2.5 units of AmpliTaq DNA polymerase. […] Sizes were determined using Q X 174 DNA/Hae III markers. […] Densitometry was used for quantitative analysis of the ethidium bromide stained gels.
In an attempt to identify the mechanism of this inhibition, the level of mRNA was evaluated for TGase II in macrophages treated with 1 µM hydrocortisone.

Experiment [4] concerns M6P/IGF-II receptor. The experiment is described as follows: Expression of M6P/IGF-II receptor mRNA in neonatal fibroblasts, semiquantitative RT-PCR. Format: cell-based, human. The protocol: (§4) Human neonatal fibroblasts were seeded in 100 mm dishes at 1 x 10^6 cells/dish. […] In addition, cells were treated with two concentrations of Mannose 1-Phosphate (M1P) (100 and 200 µM) for 24 and 48 h. […] Each treatment was run in duplicates and repetitive analyses were performed.
as §1
The procedure used to transcribe the total RNA was described in detail previously (28). Briefly, the reaction was carried out in a total volume of 25 µl containing 1x reverse transcriptase buffer (50 mM Tris-HCl, pH 8.3, 75 mM KCl, 3 mM MgCl2), 10 mM DTT (Dithiothreitol), 2.5 mM each of dNTPs (Deoxynucleotides), 100 µg/ml of acetylated BSA, 4 units of rRNasin (ribonuclease inhibitor), 200 units of SuperScript ™ RNase H^-Reverse Transcriptase, 0.1 µg of oligo (dT)12-18 and 1 µg of total RNA. Incubation was carried out for 1 h at 42 °C and was terminated by the addition of an equal volume of cold water.
A portion of the first strand cDNA reaction was used in PCR, which was carried out in 25 µl containing 16 mM Tris-HCl, pH 8.3, 50 mM KCl, 1.5 mM MgCl2, 0.01 % gelatin, 200 µM of each dNTPs, 1 µM each sense and antisense oligonucleotides and 2.5 units of AmpliTaq DNA polymerase. Amplification was carried out for 35 cycles. Each cycle consisted of denaturation 1 min at 95°C; annealing at 55°C (optimal for the pair of oligonucleotides used) for 2 min; and elongation at 72°C, 3 min. For the final cycle elongation was 7 min. Reaction products were separated by 2% agarose gel electrophoresis and were visualized by ethidium bromide staining. […] Restriction digests were performed in order to confirm PCR product specificity. Densitometry was used for quantitative analysis of the ethidium bromide stained gels.

Experiment [5] has as its system TGF-β1. The experiment can be described thus: Expression of TGF-β1 mRNA in neonatal fibroblasts, semiquantitative RT-PCR. It is filed as cell-based, human. The protocol:
as §4, §1, §2
A portion of the first strand cDNA reaction was used in PCR, which was carried out in 25 µl containing 16 mM Tris-HCl, pH 8.3, 50 mM KCl, 1.5 mM MgCl2, 0.01 % gelatin, 200 µM of each dNTPs, 1 µM each sense and antisense oligonucleotides and 2.5 units of AmpliTaq DNA polymerase. […] Densitometry was used for quantitative analysis of the ethidium bromide stained gels.

Experiment [6] deals with M6P/IGF-II receptors. The experiment can be described thus: Levels of M6P/IGF-II receptors within wounds treated with M6P. The settings on record: 3 days post-wounding. It is filed as in vivo.
For experiment [7], the system named is TGF-β receptor type I. The experiment is described as follows: Expression of TGF-β receptor type I mRNA in neonatal fibroblasts, semiquantitative RT-PCR. Format: cell-based, human. The settings on record: M6P treatment, during the time course (24 and 48 h). The protocol:
as §4, §1, §2, §3

From patent EP0956036B1, “ANTI-FIBROTIC AGENT ASSAY” (ETHICON, INC., priority 1996, dated 1998) come the findings set out here.

Read-outs that look alike come from different tables or passages of the source.

Regarding `CN(C)c1cccc2c(S(=O)(=O)NCCCCCN)cccc12` [DCA, monodansylcadaverine], the “Inhibition of TGF-β1 Activation, % control (STD)” value (“Inhibition … % control (STD)” below) in experiment [1] (100 µM, listed as Damylcadaverine) is recorded as 18.3 (1.6) %. Further, in experiment [1] (LPS+CM with serum, 100 µM), the “Total TGF-β1 (STD)” value is given as 2302 (219.3) pg/ml. Further, in experiment [1] (Mus musculus, 100 µM), the inhibition at 100 µM stood at 18.3%. For the same molecule, the “levels of mRNA for TGF-β1” value in experiment [2] is recorded as “remained the same”.

With `C[C@]12CCC(=O)C=C1CC[C@@H]1[C@@H]2[C@@H](O)C[C@@]2(C)[C@H]1CC[C@]2(O)C(=O)CO` [Hydrocortisone, hydrocortisone], the inhibition at 1 µM in experiment [1] (Mus musculus, read-out: Inhibition of TGF-β1, % Control (STD)) was found to be 64%. In experiment [3], this molecule gave a TGase II mRNA level, % of control at 1 µM of 37.5%.

As to `O=P(O)(O)O[C@H]1O[C@H](CO)[C@@H](O)[C@H](O)[C@@H]1O` [M1P, alpha-D(+) mannose 1-phosphate], the inhibition at 100 µM in experiment [1] (Mus musculus) was 85.9%. Further, the “M6P/IGF-II receptor mRNA levels” value in experiment [4] (100 and 200 µM, 24 and 48 h) is given as “no effects”. For the same molecule, the “TGF-β1 mRNA levels” value in experiment [5] (100 and 200 µM, 24 and 48 h) was “no effects”.

`O=P(O)(O)OC[C@H]1OC(O)[C@@H](O)[C@@H](O)[C@@H]1O` (stereo partly drawn) [M6P, D-mannose 6-phosphate]: the “levels of the M6P/IGF-II receptors within the wounds” value in experiment [6] was “downregulated”. In addition, the “Inhibition … % control (STD)” value in experiment [1] (50 µM) is reported as 69.6 (1.7) %; in experiment [1] (100 µM), 32.9 (11.5) %. Also, the “Total TGF-β1 (STD)” value is given as 1649.8 (71.7) pg/ml in experiment [1] (LPS + CM serum-free, 100 µM) and 2472.6 (374.5) pg/ml in experiment [1] (LPS+CM with serum, 100 µM). Besides, the inhibition at 50 µM in experiment [1] (Mus musculus, 50 µM) is 69.6%. The inhibition at 100 µM in experiment [1] (Mus musculus, 100 µM) was determined as 32.9%. Moreover, the “M6P/IGF II Receptor 24h” value in experiment [4] (M6P 1 µM) is 98.4 (20.6); in experiment [4] (M6P 10 µM), 86.1 (3.2); in experiment [4] (M6P 50 µM) it was 74 (36.6); in experiment [4] (M6P 100 µM) it was 85.4 (25); in experiment [4] (M6P 200 µM), 57.5 (5.2). Further, the “M6P/IGF II Receptor 48h” value is listed as 112.8 (21.4) in experiment [4] (M6P 1 µM); 108 (7.1) in experiment [4] (M6P 10 µM); 59.3 (1.4) in experiment [4] (M6P 50 µM); 42.2 (3.2) in experiment [4] (M6P 100 µM); 39.6 (1.3) in experiment [4] (M6P 200 µM). In addition, the “level of TGF-β receptor type I mRNA” value in experiment [7] was “unchanged”. Also, the “TGF-β1 48 h” value in experiment [5] (M6P 100 µM, 48h) is 57.5 (15.9). The “levels of mRNA for TGF-β1” value in experiment [2] was “remained the same”.

Take `Cl.Cl.NCCCCN` [Putrescine, putrescine-dihydrochloride]: the “Inhibition … % control (STD)” value is reported as 33.4 (28.8) % in experiment [1] (50 µM) and 80.6 (15.5) % in experiment [1] (100 µM). In addition, the inhibition at 50 µM in experiment [1] (Mus musculus, 50 µM) is 33.4%. The inhibition at 100 µM in experiment [1] (Mus musculus, 100 µM) is 80.6 ± 15.5%.

Broadly, the inhibition is how much of the control response was suppressed.
